Data reported in BindingDB's records for doi:10.1021/jm00162a015 (1987).
Square brackets hold non-standard residues; d marks the D form. Peptide text beside a SMILES is read from it. * marks the point of attachment. Sta = CC(C)C[C@H](N)[C@@H](O)CC(=O)O; Boc = CC(C)(C)OC(=O)*

These molecules were tested against Rhizopuspepsin (Rhizopus chinensis) (assay: Compound was tested for inhibition of Rhizopus chinensis pepsin.).

| SMILES | Ki |
| --- | --- |
| COC(=O)[C@H](CC(C)C)NC(=O)[C@@H](NC(=O)C[C@H](O)[C@H](CC(C)C)NC(=O)[C@H](C)NC(=O)[C@H](C)NC(=O)[C@H](Cc1ccccc1)NC(=O)OC(C)(C)C)C(C)C [2-[2-(4-{2-[2-(2-tert-Butoxycarbonylamino-3-phenyl-propionylamino)-propionylamino]-propionylamino}-3-hydroxy-6-methyl-heptanoylamino)-3-methyl-butyrylamino]-4-methyl-pentanoic acid methyl ester] (Boc-FAA[Sta]VL-OMe) | 78 nM |
| COC(=O)[C@H](CC(C)C)NC(=O)[C@@H](NC(=O)[C@H](Cc1ccccc1)NC(=O)C[C@H](O)[C@H](CC(C)C)NC(=O)[C@H](C)NC(=O)[C@H](Cc1ccccc1)NC(=O)[C@H](Cc1ccccc1)NC(=O)OC(C)(C)C)C(C)C [2-{2-[2-(4-{2-[2-(2-tert-Butoxycarbonylamino-3-phenyl-propionylamino)-3-phenyl-propionylamino]-propionylamino}-3-hydroxy-6-methyl-heptanoylamino)-3-phenyl-propionylamino]-3-methyl-butyrylamino}-4-methyl-pentanoic acid methyl ester] (Boc-FFA[Sta]FVL-OMe) | 14 nM |
| COC(=O)[C@H](CC(C)C)NC(=O)[C@@H](NC(=O)[C@H](Cc1ccccc1)NC(=O)C[C@H](O)[C@H](CC(C)C)NC(=O)[C@H](C)NC(=O)[C@H](CC(C)C)NC(=O)[C@H](Cc1ccccc1)NC(=O)OC(C)(C)C)C(C)C [2-{2-[2-(4-{2-[2-(2-tert-Butoxycarbonylamino-3-phenyl-propionylamino)-4-methyl-pentanoylamino]-propionylamino}-3-hydroxy-6-methyl-heptanoylamino)-3-phenyl-propionylamino]-3-methyl-butyrylamino}-4-methyl-pentanoic acid methyl ester] (Boc-FLA[Sta]FVL-OMe) | 9.2 nM |
| COC(=O)[C@H](CC(C)C)NC(=O)[C@@H](NC(=O)[C@H](Cc1ccccc1)NC(=O)C[C@H](O)[C@H](CC(C)C)NC(=O)[C@H](C)NC(=O)[C@H](C)NC(=O)[C@H](Cc1ccccc1)NC(=O)OC(C)(C)C)C(C)C [2-{2-[2-(4-{2-[2-(2-tert-Butoxycarbonylamino-3-phenyl-propionylamino)-propionylamino]-propionylamino}-3-hydroxy-6-methyl-heptanoylamino)-3-phenyl-propionylamino]-3-methyl-butyrylamino}-4-methyl-pentanoic acid methyl ester] (Boc-FAA[Sta]FVL-OMe) | 51 nM |
